Test results published in ChEMBL document CHEMBL6078672, “Chemical probes for the identification of the molecular targets of honokiol” (Eur J Med Chem, 2025).

What was measured:
[1] = target: T1, 6-phosphogluconate dehydrogenase, decarboxylating (Homo sapiens) (UniProt P52209); assay: Binding affinity to PGD in human MDA-MB-231 cells assessed as change in melting temperature at 10 uM incubated for 1 hr by cellular thermal shift assay; format: cell-based
T1 sequence (whole entry): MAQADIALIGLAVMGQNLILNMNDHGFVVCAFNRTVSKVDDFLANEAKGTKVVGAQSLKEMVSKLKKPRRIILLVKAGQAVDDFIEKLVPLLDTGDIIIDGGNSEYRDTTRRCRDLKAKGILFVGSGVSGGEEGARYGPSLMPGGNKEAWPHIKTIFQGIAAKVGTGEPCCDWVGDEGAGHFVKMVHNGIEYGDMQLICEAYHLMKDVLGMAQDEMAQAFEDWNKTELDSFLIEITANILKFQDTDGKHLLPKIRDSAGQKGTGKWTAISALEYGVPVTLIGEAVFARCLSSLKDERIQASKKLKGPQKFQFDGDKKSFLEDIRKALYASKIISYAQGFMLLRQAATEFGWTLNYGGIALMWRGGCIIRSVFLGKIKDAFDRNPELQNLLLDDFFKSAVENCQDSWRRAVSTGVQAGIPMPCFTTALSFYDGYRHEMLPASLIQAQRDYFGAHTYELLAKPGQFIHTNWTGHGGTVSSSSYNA

[2] = target: T2, Dipeptidyl peptidase 3 (Homo sapiens) (UniProt Q9NY33); assay: Binding affinity to DPP3 in human MDA-MB-231 cells assessed as change in melting temperature at 10 uM incubated for 1 hr by cellular thermal shift assay; format: cell-based
T2 sequence (whole entry): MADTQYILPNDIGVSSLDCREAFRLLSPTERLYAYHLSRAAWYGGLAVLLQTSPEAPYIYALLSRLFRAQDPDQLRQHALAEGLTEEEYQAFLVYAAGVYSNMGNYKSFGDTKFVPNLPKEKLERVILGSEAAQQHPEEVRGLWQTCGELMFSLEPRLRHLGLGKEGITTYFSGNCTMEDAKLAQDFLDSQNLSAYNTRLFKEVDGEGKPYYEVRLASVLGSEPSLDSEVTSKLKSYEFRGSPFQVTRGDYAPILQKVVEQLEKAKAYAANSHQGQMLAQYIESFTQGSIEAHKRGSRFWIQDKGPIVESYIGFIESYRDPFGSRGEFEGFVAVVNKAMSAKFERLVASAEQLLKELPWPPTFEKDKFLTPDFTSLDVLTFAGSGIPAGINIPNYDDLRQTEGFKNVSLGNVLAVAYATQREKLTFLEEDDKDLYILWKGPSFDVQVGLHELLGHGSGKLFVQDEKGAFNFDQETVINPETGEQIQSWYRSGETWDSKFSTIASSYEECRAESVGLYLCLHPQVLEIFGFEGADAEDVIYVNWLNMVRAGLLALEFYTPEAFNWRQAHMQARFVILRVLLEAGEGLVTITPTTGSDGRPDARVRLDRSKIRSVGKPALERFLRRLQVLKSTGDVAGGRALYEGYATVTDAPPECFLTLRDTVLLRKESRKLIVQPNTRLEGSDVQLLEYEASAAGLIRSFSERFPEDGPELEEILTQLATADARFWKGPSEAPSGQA

[3] = target: T3, Protein LYRIC (Homo sapiens) (UniProt Q86UE4); assay: Binding affinity to Lyric in human MDA-MB-231 cells assessed as change in melting temperature at 10 uM incubated for 1 hr by cellular thermal shift assay; format: cell-based
T3 sequence (whole entry): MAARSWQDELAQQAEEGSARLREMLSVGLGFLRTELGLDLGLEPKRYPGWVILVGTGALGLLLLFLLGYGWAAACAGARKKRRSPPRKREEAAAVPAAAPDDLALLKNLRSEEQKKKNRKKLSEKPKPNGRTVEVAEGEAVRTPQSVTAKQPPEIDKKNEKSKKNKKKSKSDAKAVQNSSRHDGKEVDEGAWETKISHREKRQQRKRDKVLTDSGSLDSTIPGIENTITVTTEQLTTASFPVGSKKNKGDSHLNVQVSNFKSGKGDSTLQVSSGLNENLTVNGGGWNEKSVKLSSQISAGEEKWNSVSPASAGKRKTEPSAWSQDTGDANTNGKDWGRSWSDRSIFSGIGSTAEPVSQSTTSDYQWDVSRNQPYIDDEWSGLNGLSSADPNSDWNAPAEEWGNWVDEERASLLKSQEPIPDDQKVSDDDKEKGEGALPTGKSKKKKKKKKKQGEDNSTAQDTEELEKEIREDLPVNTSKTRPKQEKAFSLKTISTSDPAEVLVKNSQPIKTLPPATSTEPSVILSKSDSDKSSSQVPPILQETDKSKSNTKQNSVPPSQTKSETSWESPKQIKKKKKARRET

OVCAR-3 = assay: Cytotoxicity against human OVCAR-3 cells assessed as inhibition of cell growth incubated for 48 hrs by MTT assay; format: functional, cell-based; details: OVCAR-3, 48 h
MDA-MB-231 [4] = assay: Cytotoxicity against human MDA-MB-231 cells assessed as inhibition of cell growth incubated for 48 hrs by MTT assay; format: functional, cell-based; details: MDA-MB-231, 48 h
SK-OV-3 = assay: Cytotoxicity against human SK-OV-3 cells assessed as inhibition of cell growth incubated for 48 hrs by MTT assay; format: functional, cell-based; details: SK-OV-3, 48 h
MDA-MB-231 [5] = assay: Binding affinity to CAPN-1 in human MDA-MB-231 cells assessed as change in melting temperature at 10 uM incubated for 1 hr by cellular thermal shift assay; format: cell-based
[6] = Drug localization in human MDA-MB-231 cells assessed as increase in fluorescent band intensity incubated for 30 mins in presence of UV irradiation by coomassie brilliant blue staining based SDS-PAGE analysis; format: ADME, cell-based; details: mda-mb-231, 0.5 h
[7] = Drug localization in human membrane fraction of MDA-MB-231 cells assessed as increase in fluorescent band intensity at 10 uM incubated for 30 mins in presence of honokiol by coomassie brilliant blue staining based SDS-PAGE analysis; format: ADME, cell membranes; details: mda-mb-231, 0.5 h
[8] = Drug localization in human MDA-MB-231 cells assessed as increase in fluorescent band intensity at 20 uM incubated for 30 mins in presence of UV irradiation by coomassie brilliant blue staining based SDS-PAGE analysis; format: ADME, cell-based; details: mda-mb-231, 0.5 h
[9] = Drug localization in human membrane fraction of MDA-MB-231 cells assessed as increase in fluorescent band intensity at 10 uM incubated for 30 mins in presence of 2-O-ethylhonokiol by coomassie brilliant blue staining based SDS-PAGE analysis; format: ADME, cell membranes; details: mda-mb-231, 0.5 h
[10] = Drug localization in human MDA-MB-231 cells assessed as increase in fluorescent band intensity at 10 uM incubated for 30 mins in presence of 2-O-ethylhonokiol by coomassie brilliant blue staining based SDS-PAGE analysis; format: ADME, cell-based; details: mda-mb-231, 0.5 h
[11] = Drug localization in human MDA-MB-231 cells assessed as increase in fluorescent band intensity at 10 uM incubated for 30 mins in presence of honokiol by coomassie brilliant blue staining based SDS-PAGE analysis; format: ADME, cell-based; details: mda-mb-231, 0.5 h
[12] = Drug localization in human MDA-MB-231 cells assessed as increase in fluorescent band intensity at 1 to 10 uM incubated for 30 mins in presence of UV irradiation by coomassie brilliant blue staining based SDS-PAGE analysis; format: ADME, cell-based; details: mda-mb-231, 0.5 h, dose 1-10 µM
[13] = Drug localization in human MDA-MB-231 cells assessed as increase in fluorescent band intensity at 20 uM incubated for 30 mins in absence of UV irradiation by coomassie brilliant blue staining based SDS-PAGE analysis; format: ADME, cell-based; details: mda-mb-231, 0.5 h
[14] = Drug localization in human OVCAR-3 cells assessed as increase in fluorescent band intensity at 10 uM incubated for 30 mins by coomassie brilliant blue staining based SDS-PAGE analysis; format: ADME, cell-based; details: ovcar-3, 0.5 h
[15] = Drug localization in human SK-OV-3 cells assessed as increase in fluorescent band intensity at 10 uM incubated for 30 mins by coomassie brilliant blue staining based SDS-PAGE analysis; format: ADME, cell-based; details: sk-ov-3, 0.5 h

Row | Structure (SMILES) | IC50 (OVCAR-3) | IC50 (MDA-MB-231 [4]) | IC50 (SK-OV-3) | further results
1 | C=CCc1ccc(O)c(-c2ccc(O)c(CC=C)c2)c1 [HONOKIOL] | 51 µM | 46 µM | 48 µM | ΔTm [1]: 1.6 °C; ΔTm [2]: 2.3 °C; ΔTm [3]: 1 °C; ΔTm (MDA-MB-231 [5]): 4.3 °C
2 | C#CCCC1(CCC(=O)NCCCc2cc(-c3cc(CC=C)ccc3OCC)ccc2O)N=N1 | 50 µM | 39 µM | 44 µM | Drug uptake [6]: Dose-dependent-effect; Drug uptake [7]: Not_active; Drug uptake [8]: Not_active; Drug uptake [9]: Not_active; Drug uptake [10]: Not_active; Drug uptake [11]: Not_active; Drug uptake [12]: Not_active; Drug uptake [13]: Not_active
3 | C=CCc1ccc(OCCCn2cc(CCCC(=O)Nc3ccc(C(=O)c4ccc(NC(=O)CCCC[C@@H]5SC[C@@H]6NC(=O)N[C@@H]65)cc4)cc3)nn2)c(-c2ccc(O)c(CC=C)c2)c1 | > 100 µM | > 100 µM | > 100 µM | –
4 | C#CCCC1(CCC(=O)NCCCc2ccc(OCC)c(-c3ccc(O)c(CC=C)c3)c2)N=N1 | 30 µM | 37 µM | 39 µM | Drug uptake [6]: Dose-dependent-effect; Drug uptake [14]: Active; Drug uptake [15]: Active; Drug uptake [7]: Not_active; Drug uptake [8]: Active; Drug uptake [9]: Not_active; Drug uptake [10]: Not_active; Drug uptake [11]: Not_active; Drug uptake [12]: Not_active; Drug uptake [13]: Not_active
5 | C=CCc1ccc(OCC)c(-c2ccc(O)c(CC=C)c2)c1 | 37 µM | 28 µM | 43 µM | –
6 | C=CCc1ccc(OCC)c(-c2ccc(O)c(CCCn3cc(CCCC(=O)Nc4ccc(C(=O)c5ccc(NC(=O)CCCC[C@@H]6SC[C@@H]7NC(=O)N[C@@H]76)cc5)cc4)nn3)c2)c1 | > 100 µM | > 100 µM | > 100 µM | –
7 | C=CCc1cc(-c2cc(Cc3cn(CCCCCC(=O)Nc4ccc(C(=O)c5ccc(NC(=O)CCCC[C@@H]6SC[C@@H]7NC(=O)N[C@@H]76)cc5)cc4)nn3)ccc2OCC)ccc1O | > 100 µM | > 100 µM | > 100 µM | –
8 | C=CCc1cc(-c2cc(CCCn3cc(CCCC(=O)Nc4ccc(C(=O)c5ccc(NC(=O)CCCC[C@@H]6SC[C@@H]7NC(=O)N[C@@H]76)cc5)cc4)nn3)ccc2OCC)ccc1O | > 100 µM | > 100 µM | > 100 µM | –
